The experiment has as its system Desulfomonas and Citrobacter freundii. The experiment in a line: Effect of sulfate addition on sulfate-reducing activity of soil samples (Table 4). The procedure: Soil samples are treated with a culture of Desulfomonas (10^8 cells/mL) and Citrobacter freundii (10^4 cells/mL) at 30° C., with and without added sulfate. Sulfate, if added, is a 1:1 mixture by weight of ferric ammonium sulfate and magnesium sulfate. Sulfate-reducing activity is indicated by formation of black precipitate in the soil sample within 24 h after mixing the cultures with soil samples.

With Sulfate, the “sulfate-reducing activity of the mixed culture (in words)” value (100 ppm of sulfate) is recorded as “greatly improves sulfate-reducing activity of the mixed culture”. Also, the “sulfate reduction (in words)” value (200 ppm of sulfate) is recorded as “permit reduction in all cases”.

The record behind these values is US4789478A, “Conversion of inorganic ions to metal sulfides by microorganisms” (priority 1987, dated 1988).
